Data reported in PubChem BioAssay AID192 (DTP/NCI, 2004).
Values joined by “and” are separate entries in the source; they are usually repeats but may differ in a detail not shown here. Equal entries are not always repeated. Inconclusive results and toxic doses are left out. How the source made its calls: active means survival T/C of 150% or more; inactive means T/C below 125% in these data. Square brackets hold non-standard residues; d marks the D form. Peptide text beside a SMILES is read from it. * marks the point of attachment. ξ: configuration not given here. Boc = CC(C)(C)OC(=O)*; ξP = O=C(O)C1CCCN1

Tested on: BDF1 mice, B16 melanoma ip, median survival T/C
Test: NCI In Vivo Anticancer Drug Screen. Data for tumor model B16 Melanoma (intraperitoneal) in B6D2F1 (BDF1) mice
Details: endpoint: median survival time, higher = longer survival
Method in brief: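 Each result divides a survival or tumor-size measurement in the compound-treated group by the same measurement in the vehicle group.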

[1] = dose: 12.5 mg/kg/injection, schedule: Q01DX009 (ip), vehicle: Klucel (hydroxypropylcellulose) (HPC)
[2] = dose: 25.0 mg/kg/injection, schedule: Q01DX009 (ip), vehicle: Klucel (hydroxypropylcellulose) (HPC)
[3] = dose: 25.0 mg/kg/injection, schedule: Q04DX003 (ip), vehicle: Klucel (hydroxypropylcellulose) (HPC)
[4] = dose: 50.0 mg/kg/injection, schedule: Q01DX009 (ip), vehicle: saline
[5] = dose: 100.0 mg/kg/injection, schedule: Q01DX009 (ip), vehicle: saline
[6] = dose: 200.0 mg/kg/injection, schedule: Q01DX009 (ip), vehicle: saline
[7] = dose: 100.0 mg/kg/injection, schedule: Q01DX009 (ip), vehicle: Klucel (hydroxypropylcellulose) (HPC)
[8] = dose: 100.0 mg/kg/injection, schedule: Q04DX003 (ip), vehicle: Klucel (hydroxypropylcellulose) (HPC)
[9] = dose: 200.0 mg/kg/injection, schedule: Q01DX009 (ip), vehicle: Klucel (hydroxypropylcellulose) (HPC)
[10] = dose: 400.0 mg/kg/injection, schedule: Q01DX009 (ip), vehicle: Klucel (hydroxypropylcellulose) (HPC)
[11] = dose: 12.5 mg/kg/injection, schedule: Q01DX009 (ip), vehicle: saline with Tween-80
[12] = dose: 25.0 mg/kg/injection, schedule: Q01DX009 (ip), vehicle: saline with Tween-80
[13] = dose: 50.0 mg/kg/injection, schedule: Q01DX009 (ip), vehicle: Klucel (hydroxypropylcellulose) (HPC)
[14] = dose: 3.12 mg/kg/injection, schedule: Q01DX009 (ip), vehicle: Klucel (hydroxypropylcellulose) (HPC)
[15] = dose: 6.25 mg/kg/injection, schedule: Q01DX009 (ip), vehicle: Klucel (hydroxypropylcellulose) (HPC)
[16] = dose: 100.0 mg/kg/injection, schedule: Q01DX009 (ip), vehicle: saline with Tween-80
[17] = dose: 200.0 mg/kg/injection, schedule: Q01DX009 (ip), vehicle: saline with Tween-80
[18] = dose: 1.56 mg/kg/injection, schedule: Q01DX009 (ip), vehicle: Klucel (hydroxypropylcellulose) (HPC)

Measured: T/C

CCOC(=O)c1c(N)sc2c1CCN(C)C2
inactive: dose: 6.25 mg/kg/injection, schedule: Q04DX003 (ip), vehicle: Klucel (hydroxypropylcellulose) (HPC) 95 % of control | [1] 100 % of control | dose: 12.5 mg/kg/injection, schedule: Q04DX003 (ip), vehicle: Klucel (hydroxypropylcellulose) (HPC) 102 % of control | [2] 102 % of control | [3] 89 % of control | dose: 35.0 mg/kg/injection, schedule: Q04DX003 (ip), vehicle: Klucel (hydroxypropylcellulose) (HPC) 105 % of control | dose: 55.0 mg/kg/injection, schedule: Q04DX003 (ip), vehicle: Klucel (hydroxypropylcellulose) (HPC) 121 % of control

O=S(=O)(O)c1ccc2c(O)cc(S(=O)(=O)O)cc2c1
inactive: dose: 100.0 mg/kg/injection, schedule: Q04DX003 (ip), vehicle: saline 100 % of control | dose: 200.0 mg/kg/injection, schedule: Q04DX003 (ip), vehicle: saline 105 % of control | dose: 400.0 mg/kg/injection, schedule: Q04DX003 (ip), vehicle: saline 108 % of control

COC(=O)C1CCCN1C(=O)CNC(=O)OC(C)(C)C (stereo not drawn) (Boc-Gly-[ξP]-OMe)
inactive: [4] 94 % of control | [5] 103 % of control | [6] 91 % of control | dose: 400.0 mg/kg/injection, schedule: Q01DX009 (ip), vehicle: saline 88 % of control

COc1ccc(NC(=O)Nc2ccc(C)c(Cl)c2)cc1
inactive: dose: 100.0 mg/kg/injection, schedule: Q01DX009 (sc), vehicle: olive oil, sesame oil, peanut oil 109 % of control | dose: 200.0 mg/kg/injection, schedule: Q01DX009 (sc), vehicle: olive oil, sesame oil, peanut oil 100 % of control | dose: 400.0 mg/kg/injection, schedule: Q01DX009 (sc), vehicle: olive oil, sesame oil, peanut oil 98 % of control

COc1ccc(NC(=O)Oc2cc(C)cc(C)c2)cc1
inactive: [7] 96 % of control | [8] 112 % of control | [9] 96 % of control | dose: 200.0 mg/kg/injection, schedule: Q04DX003 (ip), vehicle: Klucel (hydroxypropylcellulose) (HPC) 106 % of control | [10] 89 % of control | dose: 400.0 mg/kg/injection, schedule: Q04DX003 (ip), vehicle: Klucel (hydroxypropylcellulose) (HPC) 112 % of control

C=C1CCC2(C)C(O)CC3(C)C(CCC4C5(C)CCC(OC(C)=O)C(C)(C)C5CCC43C)C2C1C (stereo unspecified)
inactive: dose: 1.0 mg/kg/injection, schedule: Q01DX009 (ip), vehicle: other 107 % of control | dose: 2.0 mg/kg/injection, schedule: Q01DX009 (ip), vehicle: other 101 % of control | dose: 4.0 mg/kg/injection, schedule: Q01DX009 (ip), vehicle: other 102 % of control

CC(C)C(Br)C(=O)NCC(=O)O (stereo unspecified)
inactive: [11] 101 % of control | [12] 95 % of control | dose: 50.0 mg/kg/injection, schedule: Q01DX009 (ip), vehicle: saline with Tween-80 102 % of control

CCN(CC)CCCC#CCN1CCOCC1
inactive: [4] 115 % of control | [5] 109 % of control | [6] 100 % of control

NC(=O)N1OCC(N)C1=O (stereo unspecified)
inactive: [4] 95 % of control | [5] 103 % of control | [6] 95 % of control

Clc1ccc2sc3c(c2c1)CCNC3
inactive: [1] 94 % of control | [2] 111 % of control | [13] 111 % of control | [7] 105 % of control

CNC(=O)Nc1ccc(C)c(Cl)c1
inactive: [7] 105 % of control | [9] 91 % of control

CC(=O)O[C@@H]1CO[C@H]2O[C@H]3[C@@H](C(C=O)=C[C@H](O)[C@@H]4C5=C(C(C)C)CC[C@]5(C)CC[C@@]34C)[C@@]2(O)C1=O
inactive: dose: 0.75 mg/kg/injection, schedule: Q01DX009 (ip), vehicle: Klucel (hydroxypropylcellulose) (HPC) 94 % of control | [14] 100 % of control | [15] 89 % of control | [1] 86 % of control

COc1cccc2c1C(=O)c1c(O)c3c(c(O)c1C2=O)CC(O)(/C(C)=N/NC(=O)CCCCC(=O)N/N=C(\C)C1(O)Cc2c(O)c4c(c(O)c2C(OC2CC(N)C(O)C(C)O2)C1)C(=O)c1c(OC)cccc1C4=O)CC3OC1CC(N)C(O)C(C)O1 (stereo unspecified)
inactive: dose: 0.38 mg/kg/injection, schedule: Q01DX009 (ip), vehicle: water 114 % of control
active: dose: 1.5 mg/kg/injection, schedule: Q01DX009 (ip), vehicle: water 177 % of control | dose: 3.0 mg/kg/injection, schedule: Q01DX009 (ip), vehicle: water 295 % of control | dose: 6.0 mg/kg/injection, schedule: Q01DX009 (ip), vehicle: water 208 % of control

O=C(O)COc1ccc([N+](=O)[O-])cc1
inactive: [16] 96 % of control | [17] 87 % of control

O=S(CCCl)CCCl
inactive: [18] 95 % of control and 107 % of control | [14] 94 % of control and 103 % of control | [15] 111 % of control | [1] 99 % of control | [2] 89 % of control | [13] 91 % of control

CCC(CC)(COC(N)=O)COC(N)=O
inactive: dose: 0.78 mg/kg/injection, schedule: Q01DX009 (ip), vehicle: Klucel (hydroxypropylcellulose) (HPC) 89 % of control | [18] 93 % of control | [14] 95 % of control | [15] 97 % of control | [1] 86 % of control

CC(=O)CC(=O)Nc1ccc(-c2ccc(NC(=O)CC(C)=O)c(Cl)c2)cc1Cl
inactive: [7] 87 % of control | [9] 87 % of control

CC1=C(C)C(=O)O[C@@H]([C@](C)(O)[C@]2(O)CC[C@@]3(O)[C@@H]4C[C@H]5O[C@]56CC=CC(=O)[C@]6(C)[C@H]4CC[C@]23C)C1
inactive: dose: 0.78 mg/kg/injection, schedule: Q01DX009 (ip), vehicle: saline 102 % of control | dose: 1.56 mg/kg/injection, schedule: Q01DX009 (ip), vehicle: saline 114 % of control

BrCCCC1CCCCC1
inactive: [13] 92 % of control | [7] 100 % of control | [9] 92 % of control

[N-]=[N+]=CC(=O)CCC(N)C(=O)O (stereo unspecified)
inactive: dose: 0.03 mg/kg/injection, schedule: Q01DX009 (ip), vehicle: saline with Tween-80 95 % of control | dose: 0.05 mg/kg/injection, schedule: Q01DX009 (ip), vehicle: saline 115 % of control | dose: 0.06 mg/kg/injection, schedule: Q01DX009 (ip), vehicle: saline with Tween-80 91 % of control | dose: 0.1 mg/kg/injection, schedule: Q01DX009 (ip), vehicle: saline 104 % of control | dose: 0.12 mg/kg/injection, schedule: Q01DX009 (ip), vehicle: saline with Tween-80 95 % of control | dose: 0.13 mg/kg/injection, schedule: Q01DX009 (ip), vehicle: saline 102 % of control | dose: 6.2 micrograms/kg/injection, schedule: Q01DX009 (ip), vehicle: saline 91 % of control | dose: 12.5 micrograms/kg/injection, schedule: Q01DX009 (ip), vehicle: saline 92 % of control | dose: 25.0 micrograms/kg/injection, schedule: Q01DX009 (ip), vehicle: saline 109 % of control

O=[N+]([O-])c1ccc2ccccc2c1I
inactive: [16] 101 % of control | [17] 103 % of control | dose: 400.0 mg/kg/injection, schedule: Q01DX009 (ip), vehicle: saline with Tween-80 99 % of control

NC(=O)c1ccccc1NC(=O)COc1ccc(Cl)cc1
inactive: [7] 106 % of control | [9] 106 % of control | [10] 100 % of control

CC(=O)OC1=C(c2ccccc2)C(=O)c2ccccc21
inactive: [3] 86 % of control | dose: 50.0 mg/kg/injection, schedule: Q04DX003 (ip), vehicle: Klucel (hydroxypropylcellulose) (HPC) 86 % of control | [8] 86 % of control

COc1cc(O)c2c(c1)Cc1cc(C)cc(O)c1C2=O
inactive: dose: 6.25 mg/kg/injection, schedule: Q01DX009 (ip), vehicle: saline with Tween-80 93 % of control | [11] 98 % of control | [12] 98 % of control

CCSC(=O)N1c2ccc(OC)cc2C=CC1C#N (stereo unspecified)
inactive: [16] 121 % of control
